In a melting point compilation (Tetko et al.; mined from patent text by program, amines drawn as free bases though some values may be those of a salt) one finds melting point data, which are given here for 35 compounds.

A value given as a limit tells only on which side of the number the result lay.

`CNC(C)C1CCN(c2nc3c(cc2F)c(=O)c(C(=O)O)cn3C2CC2)C1` (stereo not given): the melting point fell in the range of 199 to 202 °C.
With `OC1Cc2ccc3ccccc3c21` (stereo not given) the figure was 96 to 100 °C; with `COc1ccc(Cl)cc1NC(=O)NCC(=O)c1ccccc1`, 171 to 173 °C; with `CC(C)(C)OC1CCCC2C(=O)CCCC12C` (stereo not given), 78 to 79 °C.
With `COc1ccc2c(c1)C(=O)Cc1c(C#N)cccc1S2` the figure was 186 to 187 °C.
Under `CC(C)(CCc1nnn[nH]1)c1ccc(C(=O)Nc2cn3cc(-n4ccnc4)ccc3n2)cc1` stands 266 to 267 °C; under `COc1cccc([C@H]2SC[C@@H](C(=O)OC(C)(C)C)N2C(=O)CNC(=O)Nc2cccc(C(=O)O)c2)c1`, 125 °C; under `CCCCCCCCCCCCCCCCCCOc1ccc(N)cc1`, 95 to 97 °C.
Regarding `Nc1ncnc2c1ncn2[C@H]1C=C[C@@H](O)CC1` (racemic), the melting point lay within 181 to 183 °C.
Under `N#Cc1cc2c(c(C(=O)O)c1-c1ccccc1)NCCC2C(=O)O` (stereo not given) stands 231 to 232 °C.
The compound `CCOc1ccc(S(C)(=O)=O)cc1C(=O)Nc1c(C(N)=O)nn(CCOC)c1CC` returned a melting point of 190 to 192 °C.
With `Cc1cc(C(=O)NCc2cccc3c2C(=O)N(C2CCC(=O)NC2=O)C3=O)nn1C` (stereo not given) the figure was 213 to 215 °C.
With `COc1ccc(N2CCOCC2)c2sc(-c3nc4ccc(N(C)C)nc4[nH]3)nc12` the figure was 120 to 130 °C.
As for `CC(=O)NC[C@H]1CN(c2ccc(N3CCC(=C(C#N)C#N)CC3)c(F)c2)C(=O)O1`, the melting point was in the range of 158 to 160 °C.
Under `O=C1OCCN1N=C1CCOc2ccccc21` stands 105 to 108 °C; under `O=C(O)CCCn1ccn(C2CCc3ccccc3C2)c1=S` (stereo not given), 156 to 158 °C.
Under `Fc1ccc(Nc2ncnc(NN=Cc3ccc(OC(F)(F)F)cc3)n2)cc1C(F)(F)F` stands 185 to 186 °C; under `COc1cccc2nc(-c3ccc(OCCO)c(-c4ccc(S(C)(=O)=O)cc4)n3)[nH]c(=O)c12`, greater than 300 °C; under `CC1=C(CN2CC(C(=O)O)C2)CCc2cc(OCCCc3ccc(F)cc3)ccc21`, 154 to 155 °C.
`Cn1cnc(S(=O)(=O)NC(CN2CCOCC2)CN2CCOCC2)c1` came in with a melting point of 191 to 192 °C.
Under `Ic1ccc2c(c1)ncn2-c1cccc(-n2cccn2)c1` stands 209 to 211 °C.
Compound `CCOP(=O)(Cc1ccc(Oc2sc(C(N)=O)c3c2-c2c(cnn2CC)CC3)cc1)OCC` registered a melting point of 152 to 153 °C.
Compound `CCCN(CCC)C1Cc2cccc3c2N(C1)C(=O)NC3` (stereo not given) returned a melting point of 116 to 119 °C.
As for `CSc1ncc(C(=O)Cc2c(Cl)cncc2Cl)cc1OC(C)C`, the melting point lay in the range of 124 to 125 °C.
Under `CC(C)C(=O)Oc1ccc(C(=O)c2ccccc2)cc1` stands 69 to 69.5 °C; under `O=C1Nc2cccc(Br)c2C(=O)N2CC[C@@H]12`, 182 to 183 °C.
With `CC1CN(C(=O)OC(C)(C)C)CCC1(O)c1cc(C(F)(F)F)cc2ccoc12` (stereo not given) the figure was 133 to 136 °C.
Regarding `COC(=O)C1=C(C)Nc2ccccc2SC1c1ccc([N+](=O)[O-])cc1` (stereo not given), the melting point lay in the range of 150 to 152 °C.
Under `COc1ccc(-c2ccc(C(C)=O)cc2N)cc1` stands 152 to 154 °C; under `O=C(Cn1c(=O)c2cc(Cl)ccc2n(Cc2ccc(Cl)cc2Cl)c1=O)OCCO`, 167 to 168 °C.
With `CN(C)S(=O)(=O)Oc1cc(-n2c(=O)cc(C(F)(F)F)n(C)c2=O)c(F)cc1Cl` the figure was 118 to 120 °C.
In the case of `CC(C)Sc1cc2c(cc1Cl)N=CNS2(=O)=O`, the melting point lay within 231 to 232 °C.
With `CCCCCN(CCCOC)C(=O)C(CCC(=O)O)CS(=O)(=O)c1ccc2ccccc2c1` (stereo not given) the figure was 79 to 82 °C; with `COCC1CN(c2ccc(C3CC3)cc2)C(=O)O1` (racemic), 58 to 60 °C; with `OCC1OC(n2cnc3c(NC4CCCCC4)ncnc32)C(O)C1O` (stereo not given), 185 to 187 °C.
